Assay results published in ChEMBL document CHEMBL3228010, “Potential antitumor agents. 29. Quantitative structure-activity relationships for the antileukemic bisquaternary ammonium heterocycles” (J Med Chem, 1979).

Legend:
[1] = Lipophilic-hydrophilic balance, Rm of the compound by partition chromatography; assay type: physicochemical
[2] = Displacement of ethidium from poly[d(G-C)]-poly[d(G-C)] DNA (unknown origin) by fluorimetric method
L1210 [3] = assay: Antitumor activity against mouse L1210 cells […] in ip dosed C3H X DBA2 F1 hybrid mouse on day 0 and dosed once daily on days 1 to 5 assessed as increase in life span relative to control; assay type: functional
Bos taurus = species on record: Bos taurus; assay: Displacement of ethidium from calf thymus DNA by fluorimetric method
[4] = Displacement of ethidium from poly[d(A-T)]-poly[d(A-T)] DNA by fluorimetric method
L1210 [5] = assay: Antitumor activity against mouse L1210 cells […] in ip dosed C3H X DBA2 F1 hybrid mouse on day 0 and dosed at LD10 level once daily on days 1 to 5 assessed as increase in life span relative to control; assay type: functional
Mus musculus = assay: Toxicity in ip dosed C3H X DBA2 F1 hybrid mouse […] with mouse L1210 cells on day 0 and dosed once daily on days 1 to 5 measured after 50 days; assay type: organism-based; settings: in vivo, 1200 h

Row | Compound | Rm [1] | C50 [2] | D40 (L1210 [3]) | C50 (Bos taurus) | C50 [4] | log(ILSmax) (L1210 [5]) | LD10 (Mus musculus)
1 | C[n+]1cccc(NC(=O)c2ccc(NC(=O)c3ccc(C(=O)Nc4ccc(Nc5cc[n+](C)c6ccc(N)cc56)cc4)cc3)cc2)c1.Cc1ccc(S(=O)(=O)[O-])cc1.Cc1ccc(S(=O)(=O)[O-])cc1 | -0.47 | 0.34 µM | 22.1 mg/kg | 0.31 µM | 0.22 µM | 1.95 | 140 mg/kg
2 | C[n+]1ccc(Nc2ccc(NC(=O)/C=C/c3ccc(C(=O)Nc4ccc(Nc5cc[n+](C)cc5)cc4)cc3)cc2)cc1.Cc1ccc(S(=O)(=O)[O-])cc1.Cc1ccc(S(=O)(=O)[O-])cc1 | -0.34 | 0.51 µM | 4.2 mg/kg | 0.43 µM | 0.14 µM | 2.28 | 11 mg/kg
3 | C/C(=N\NC(=N)N)c1ccc(NC(=O)c2ccc(C(=O)Nc3ccc(C(=O)Nc4ccc[n+](C)c4)cc3)cc2)cc1.Cc1ccc(S(=O)(=O)O)cc1.Cc1ccc(S(=O)(=O)[O-])cc1 | -0.53 | 0.52 µM | 8.7 mg/kg | 0.46 µM | 0.3 µM | 1.93 | 20 mg/kg
4 | CCC[n+]1ccc(Nc2ccc(NC(=O)c3ccc(Nc4cc[n+](CCC)c5ccccc45)cc3)cc2)cc1.[Br-].[Br-] | 0.74 | 3 µM | 8.8 mg/kg | 2.3 µM | 0.2 µM | 1.81 | 15 mg/kg
5 | C[n+]1ccc(-c2ccc(-c3ccc(-c4ccc(NC(=O)c5ccc(C(=O)Nc6ccc(-c7ccc(-c8ccc(-c9cc[n+](C)cc9)cc8)cc7)cc6)cc5)cc4)cc3)cc2)cc1.Cc1ccc(S(=O)(=O)[O-])cc1.Cc1ccc(S(=O)(=O)[O-])cc1 | -0.3 | 1.15 µM | 22 mg/kg | 0.55 µM | 0.4 µM | 2.28 | 110 mg/kg
6 | C[n+]1ccc(Nc2ccc(NC(=O)c3ccc(Nc4cc[n+](C)c5cc([N+](=O)[O-])ccc45)cc3)cc2)cc1.Cc1ccc(S(=O)(=O)[O-])cc1.Cc1ccc(S(=O)(=O)[O-])cc1 | 0.15 | 1.3 µM | 3 mg/kg | 0.69 µM | 0.2 µM | 2.02 | 27 mg/kg
7 | Br.C/C(=N\NC(=N)N)c1ccc(NC(=O)c2ccc(Nc3cc[n+](C)c4ccccc34)cc2)cc1.[Br-] | -0.07 | 1.04 µM | 13 mg/kg | 0.78 µM | 0.39 µM | 1.91 | 33 mg/kg
8 | C[n+]1ccc(Nc2ccc(NC(=O)c3ccc(Nc4c(-c5ccccc5)c[n+](C)c5ccc(N)cc45)cc3)cc2)cc1.[Br-].[Br-] | 0.65 | 0.63 µM | 10 mg/kg | 0.39 µM | 0.15 µM | 1.78 | 22 mg/kg
9 | CC[n+]1ccc(Nc2ccc(NC(=O)c3ccc(Nc4cc(C)[n+](CC)c5ccc(N)cc45)cc3N)cc2)cc1.[I-].[I-] | 0.34 | 1.17 µM | 7.2 mg/kg | 0.5 µM | 0.31 µM | 1.86 | 20 mg/kg
10 | Br.C/C(=N\NC(=N)N)c1ccc(NC(=O)Nc2ccc(Nc3cc[n+](C)c4ccc(N)cc34)cc2)cc1.[Br-] | -0.15 | 0.53 µM | 18.5 mg/kg | 0.42 µM | 0.25 µM | 2.2 | 150 mg/kg
11 | Br.C/C(=N\NC(=N)N)c1ccc(NC(=O)c2ccc(Nc3cc[n+](C)c4ccc(N)cc34)cc2N)cc1.[Br-] | -0.41 | 0.78 µM | 1.7 mg/kg | 0.51 µM | 0.21 µM | 2.25 | 40 mg/kg
12 | C[n+]1ccc(Nc2ccc(NC(=O)/C=C/c3ccc(Nc4cc[n+](C)c5ccccc45)cc3)cc2)cc1.[Br-].[Br-] | 0.28 | 0.71 µM | 1.3 mg/kg | 0.38 µM | 0.15 µM | 2.22 | 22 mg/kg
13 | CC[n+]1cccc(NC(=O)c2ccc(NC(=O)c3ccc(NC(=O)c4ccc(C(=O)Nc5ccc[n+](CC)c5)cc4)cc3)cc2)c1.Cc1ccc(S(=O)(=O)[O-])cc1.Cc1ccc(S(=O)(=O)[O-])cc1 | -0.44 | 0.65 µM | 9.1 mg/kg | 0.5 µM | 0.43 µM | 1.9 | 33 mg/kg
14 | CCCC[n+]1cccc(C(=O)Nc2ccc(NC(=O)c3ccc(C(=O)Nc4ccc5c(ccc[n+]5CCCC)c4)cc3)cc2)c1.Cc1ccc(S(=O)(=O)[O-])cc1.Cc1ccc(S(=O)(=O)[O-])cc1 | 0.65 | 4.2 µM | 12 mg/kg | 2.5 µM | 2.1 µM | 1.72 | 19 mg/kg
15 | C(=C\c1ccc(-[n+]2ccccc2)cc1)/c1ccc(/C=C/c2ccc(-[n+]3ccccc3)cc2)cc1.Cc1ccc(S(=O)(=O)[O-])cc1.Cc1ccc(S(=O)(=O)[O-])cc1 | 0.05 | 2.1 µM | 1.6 mg/kg | 0.76 µM | 0.2 µM | 1.95 | 7 mg/kg
16 | C[n+]1ccc(Nc2ccc(/C=C/c3ccc(Nc4cc[n+](C)c5ccccc45)cc3)cc2)cc1.[Br-].[Br-] | 0.61 | 0.67 µM | 12 mg/kg | 0.34 µM | 0.13 µM | 1.89 | 23 mg/kg
17 | C[n+]1cccc(NC(=O)c2ccc(NC(=O)c3ccc(C(=O)Nc4ccc(C(=O)Nc5ccc[n+](C)c5)cc4)c(N)c3)cc2)c1.Cc1ccc(S(=O)(=O)[O-])cc1.Cc1ccc(S(=O)(=O)[O-])cc1 | -0.63 | 0.93 µM | 3.9 mg/kg | 0.53 µM | 0.37 µM | 2.17 | 20 mg/kg
18 | CC[n+]1ccc(Nc2ccc(NC(=O)c3ccc(Nc4cc[n+](CC)c5ccc(N)cc45)cc3)cc2)cc1.[Br-].[Br-] | 0.22 | 1.04 µM | 0.9 mg/kg | 0.69 µM | 0.1 µM | 2.25 | 10 mg/kg
19 | C[n+]1cccc(NC(=O)c2ccc(NC(=O)c3ccc(C(=O)Nc4ccc(C(=O)Nc5ccc[n+](C)c5)cc4)c4ccccc34)cc2)c1.Cc1ccc(S(=O)(=O)[O-])cc1.Cc1ccc(S(=O)(=O)[O-])cc1 | 0.45 | 2.7 µM | 54.5 mg/kg | 1.5 µM | 1.1 µM | 1.84 | 140 mg/kg
20 | CC[n+]1cccc(NC(=O)c2ccc(NC(=O)c3ccc(C(=O)Nc4ccc5c(ccc[n+]5CC)c4)cc3)cc2)c1.Cc1ccc(S(=O)(=O)[O-])cc1.Cc1ccc(S(=O)(=O)[O-])cc1 | 0.09 | 1.48 µM | 2.3 mg/kg | 0.74 µM | 0.62 µM | 2.2 | 9 mg/kg
21 | COc1cc(C(=O)Nc2ccc[n+](C)c2)ccc1NC(=O)c1ccc(C(=O)Nc2ccc(C(=O)Nc3ccc[n+](C)c3)cc2OC)cc1.Cc1ccc(S(=O)(=O)[O-])cc1.Cc1ccc(S(=O)(=O)[O-])cc1 | -0.41 | 0.9 µM | 13 mg/kg | 0.84 µM | 0.72 µM | 1.89 | 25 mg/kg
22 | C[n+]1cccc(NC(=O)c2ccc(NC(=O)c3ccc(C(=O)Nc4ccc(C(=O)Nc5ccc[n+](C)c5)cc4)c(Cl)c3)cc2)c1.Cc1ccc(S(=O)(=O)[O-])cc1.Cc1ccc(S(=O)(=O)[O-])cc1 | 0.05 | 2 µM | 5.6 mg/kg | 1 µM | 0.95 µM | 2.11 | 30 mg/kg
23 | C/C(=N\NC(=N)N)c1ccc(NC(=O)c2ccc(Nc3cc[n+](C)c4cc(N)ccc34)cc2)cc1.Cc1ccc(S(=O)(=O)O)cc1.Cc1ccc(S(=O)(=O)[O-])cc1 | -0.36 | 1 µM | 4 mg/kg | 0.53 µM | 0.19 µM | 2.2 | 31 mg/kg
24 | C[n+]1cccc(NC(=O)c2ccc(NC(=O)/C=C/c3ccc(C(=O)Nc4ccc(C(=O)Nc5ccc[n+](C)c5)cc4)cc3)cc2)c1.Cc1ccc(S(=O)(=O)[O-])cc1.Cc1ccc(S(=O)(=O)[O-])cc1 | -0.95 | 0.23 µM | 21 mg/kg | 0.3 µM | 0.22 µM | 1.99 | 100 mg/kg
25 | C[n+]1cc(-c2ccc(NC(=O)c3ccc(Nc4cc[n+](C)c5ccccc45)cc3)cc2)c(N)nc1N.Cc1ccc(S(=O)(=O)[O-])cc1.Cc1ccc(S(=O)(=O)[O-])cc1 | -0.01 | 2.73 µM | 3.5 mg/kg | 1.24 µM | 0.22 µM | 2.27 | 20 mg/kg
26 | C[n+]1ccc(Nc2ccc(/C=C/c3ccc(Nc4cc[n+](C)c5ccc(N)cc45)cc3)cc2)cc1.[Br-].[Br-] | 0.31 | 0.53 µM | 1.8 mg/kg | 0.38 µM | 0.15 µM | 2.19 | 16 mg/kg
